ChEMBL document CHEMBL1144455, “A small molecule-kinase interaction map for clinical kinase inhibitors” (Nat Biotechnol, 2005)

Key:
[1] = biological target: Serine/threonine-protein kinase PAK 5 (Homo sapiens, UniProt Q9P286)
[2] = biological target: T1, Mitogen-activated protein kinase 12 (Homo sapiens, UniProt P53778)
T1 sequence (P53778 whole entry): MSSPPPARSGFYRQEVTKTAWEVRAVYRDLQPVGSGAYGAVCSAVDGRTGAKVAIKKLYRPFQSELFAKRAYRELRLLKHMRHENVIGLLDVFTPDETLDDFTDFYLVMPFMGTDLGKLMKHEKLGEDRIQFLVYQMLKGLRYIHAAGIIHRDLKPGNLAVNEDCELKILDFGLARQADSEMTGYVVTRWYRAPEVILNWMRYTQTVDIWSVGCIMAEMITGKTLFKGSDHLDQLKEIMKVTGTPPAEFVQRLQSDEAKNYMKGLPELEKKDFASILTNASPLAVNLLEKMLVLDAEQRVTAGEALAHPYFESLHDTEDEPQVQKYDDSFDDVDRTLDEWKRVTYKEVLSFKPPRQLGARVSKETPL

[3] = biological target: Calcium/calmodulin-dependent protein kinase kinase 1 (Homo sapiens, UniProt Q8N5S9)
Ephrin type-A receptor 3 = biological target: T2, Ephrin type-A receptor 3 (Homo sapiens, UniProt P29320)
T2 sequence (P29320 whole entry): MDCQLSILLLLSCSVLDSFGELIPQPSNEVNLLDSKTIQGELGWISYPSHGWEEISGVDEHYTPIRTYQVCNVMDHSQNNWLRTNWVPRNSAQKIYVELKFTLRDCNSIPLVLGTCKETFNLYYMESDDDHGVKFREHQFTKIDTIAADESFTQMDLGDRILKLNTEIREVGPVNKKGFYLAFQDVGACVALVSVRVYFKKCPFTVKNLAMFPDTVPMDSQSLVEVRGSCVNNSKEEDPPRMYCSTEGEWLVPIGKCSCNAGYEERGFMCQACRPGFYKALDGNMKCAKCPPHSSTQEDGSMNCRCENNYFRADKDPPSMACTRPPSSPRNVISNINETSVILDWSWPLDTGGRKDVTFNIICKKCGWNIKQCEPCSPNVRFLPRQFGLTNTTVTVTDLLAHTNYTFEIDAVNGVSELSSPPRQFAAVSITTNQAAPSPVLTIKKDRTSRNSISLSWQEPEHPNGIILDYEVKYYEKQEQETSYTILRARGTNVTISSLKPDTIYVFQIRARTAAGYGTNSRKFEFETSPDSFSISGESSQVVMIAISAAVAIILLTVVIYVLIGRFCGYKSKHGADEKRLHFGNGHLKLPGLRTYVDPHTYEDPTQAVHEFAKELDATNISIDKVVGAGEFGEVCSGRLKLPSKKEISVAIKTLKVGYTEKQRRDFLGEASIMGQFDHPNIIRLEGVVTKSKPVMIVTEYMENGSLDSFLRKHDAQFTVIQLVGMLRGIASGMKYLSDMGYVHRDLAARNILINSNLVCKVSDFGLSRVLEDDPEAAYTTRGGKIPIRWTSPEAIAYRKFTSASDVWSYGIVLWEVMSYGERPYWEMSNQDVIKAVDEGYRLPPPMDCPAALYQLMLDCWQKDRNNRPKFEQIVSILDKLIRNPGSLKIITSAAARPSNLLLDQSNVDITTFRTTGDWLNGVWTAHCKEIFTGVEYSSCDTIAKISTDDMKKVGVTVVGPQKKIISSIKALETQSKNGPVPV

[4] = biological target: Mitogen-activated protein kinase kinase kinase kinase 5 (Homo sapiens, UniProt Q9Y4K4)
[5] = biological target: Serine/threonine-protein kinase Nek6 (Homo sapiens, UniProt Q9HC98)
[6] = biological target: T3, Serine/threonine-protein kinase ULK3 (Mus musculus, UniProt Q3U3Q1)
T3 sequence (Q3U3Q1 whole entry): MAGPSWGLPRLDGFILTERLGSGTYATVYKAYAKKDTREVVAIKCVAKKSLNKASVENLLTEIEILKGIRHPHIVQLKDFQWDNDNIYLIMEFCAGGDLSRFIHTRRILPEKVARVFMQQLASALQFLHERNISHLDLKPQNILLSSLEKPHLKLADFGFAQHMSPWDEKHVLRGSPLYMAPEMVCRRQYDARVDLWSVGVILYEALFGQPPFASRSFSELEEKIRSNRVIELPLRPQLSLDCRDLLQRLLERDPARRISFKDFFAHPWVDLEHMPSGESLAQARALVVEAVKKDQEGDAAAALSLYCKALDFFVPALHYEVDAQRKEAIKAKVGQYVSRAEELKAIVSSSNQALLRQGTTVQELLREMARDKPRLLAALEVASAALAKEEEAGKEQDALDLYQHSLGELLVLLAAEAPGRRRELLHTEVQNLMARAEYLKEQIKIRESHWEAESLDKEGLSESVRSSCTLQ

Measured: Kd

Chain of Serine/threonine-protein kinase Nek6 (Q9HC98 whole entry): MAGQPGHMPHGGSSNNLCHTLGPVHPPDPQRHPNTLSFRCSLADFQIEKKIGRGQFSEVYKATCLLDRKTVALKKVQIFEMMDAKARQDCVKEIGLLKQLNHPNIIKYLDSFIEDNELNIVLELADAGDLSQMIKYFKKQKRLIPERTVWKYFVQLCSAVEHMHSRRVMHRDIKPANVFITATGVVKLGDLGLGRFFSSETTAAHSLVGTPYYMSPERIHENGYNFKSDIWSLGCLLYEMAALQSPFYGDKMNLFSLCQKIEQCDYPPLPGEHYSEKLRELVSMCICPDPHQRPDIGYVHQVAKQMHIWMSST
Chain of Mitogen-activated protein kinase kinase kinase kinase 5 (Q9Y4K4 whole entry): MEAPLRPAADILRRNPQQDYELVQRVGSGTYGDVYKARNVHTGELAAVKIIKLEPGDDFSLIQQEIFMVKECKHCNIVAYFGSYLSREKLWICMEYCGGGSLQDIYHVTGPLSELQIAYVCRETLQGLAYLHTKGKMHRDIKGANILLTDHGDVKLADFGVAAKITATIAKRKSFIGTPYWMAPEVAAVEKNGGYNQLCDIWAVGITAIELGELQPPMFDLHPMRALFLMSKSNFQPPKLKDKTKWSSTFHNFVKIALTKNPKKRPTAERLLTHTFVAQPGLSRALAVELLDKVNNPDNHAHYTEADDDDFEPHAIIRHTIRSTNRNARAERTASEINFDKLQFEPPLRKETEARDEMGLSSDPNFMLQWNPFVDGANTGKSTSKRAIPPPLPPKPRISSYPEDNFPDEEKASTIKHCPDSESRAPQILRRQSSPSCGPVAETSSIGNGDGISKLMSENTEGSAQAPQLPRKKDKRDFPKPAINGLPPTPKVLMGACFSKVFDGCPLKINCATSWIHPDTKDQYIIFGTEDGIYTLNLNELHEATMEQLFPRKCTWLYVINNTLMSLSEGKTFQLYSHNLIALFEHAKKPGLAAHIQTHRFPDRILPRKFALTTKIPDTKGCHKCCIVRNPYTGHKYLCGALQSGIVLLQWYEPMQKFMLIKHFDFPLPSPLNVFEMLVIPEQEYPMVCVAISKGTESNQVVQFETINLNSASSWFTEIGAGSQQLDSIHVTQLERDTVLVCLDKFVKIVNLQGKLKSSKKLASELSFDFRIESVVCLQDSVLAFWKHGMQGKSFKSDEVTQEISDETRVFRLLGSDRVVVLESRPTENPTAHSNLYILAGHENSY
Chain of Calcium/calmodulin-dependent protein kinase kinase 1 (Q8N5S9 whole entry): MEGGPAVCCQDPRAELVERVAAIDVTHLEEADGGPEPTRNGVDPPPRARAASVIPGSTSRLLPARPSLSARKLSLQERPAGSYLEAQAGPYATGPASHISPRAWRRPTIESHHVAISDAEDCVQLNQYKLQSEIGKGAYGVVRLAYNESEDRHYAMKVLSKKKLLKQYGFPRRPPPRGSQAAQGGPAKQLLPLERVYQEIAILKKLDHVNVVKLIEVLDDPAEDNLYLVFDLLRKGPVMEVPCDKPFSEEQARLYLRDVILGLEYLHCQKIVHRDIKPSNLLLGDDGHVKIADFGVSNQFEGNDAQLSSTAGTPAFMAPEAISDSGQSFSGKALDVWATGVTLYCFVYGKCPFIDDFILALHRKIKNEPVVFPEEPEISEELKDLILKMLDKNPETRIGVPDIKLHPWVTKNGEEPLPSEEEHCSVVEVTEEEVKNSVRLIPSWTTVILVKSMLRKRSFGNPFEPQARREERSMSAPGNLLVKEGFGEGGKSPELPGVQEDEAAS
Chain of Serine/threonine-protein kinase PAK 5 (Q9P286 whole entry): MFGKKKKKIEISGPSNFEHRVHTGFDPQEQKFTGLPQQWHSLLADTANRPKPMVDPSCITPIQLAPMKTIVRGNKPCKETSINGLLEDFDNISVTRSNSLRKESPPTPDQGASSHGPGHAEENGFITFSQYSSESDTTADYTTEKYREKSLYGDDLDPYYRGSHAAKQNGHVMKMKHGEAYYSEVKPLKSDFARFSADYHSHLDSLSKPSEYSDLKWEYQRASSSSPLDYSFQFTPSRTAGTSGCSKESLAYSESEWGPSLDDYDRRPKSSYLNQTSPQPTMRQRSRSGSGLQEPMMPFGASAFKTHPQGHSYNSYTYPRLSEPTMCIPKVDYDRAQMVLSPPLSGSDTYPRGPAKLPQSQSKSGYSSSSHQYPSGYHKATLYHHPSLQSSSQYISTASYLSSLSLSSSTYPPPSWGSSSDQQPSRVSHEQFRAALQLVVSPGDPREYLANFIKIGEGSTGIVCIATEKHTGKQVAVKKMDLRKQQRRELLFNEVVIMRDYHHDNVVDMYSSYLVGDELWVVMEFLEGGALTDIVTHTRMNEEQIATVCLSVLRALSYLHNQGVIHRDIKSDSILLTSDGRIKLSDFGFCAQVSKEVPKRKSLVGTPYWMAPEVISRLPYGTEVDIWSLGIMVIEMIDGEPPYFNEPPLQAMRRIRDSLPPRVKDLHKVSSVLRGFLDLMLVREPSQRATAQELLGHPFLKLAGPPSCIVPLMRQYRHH

C#Cc1cccc(Nc2ncnc3cc(OCCOC)c(OCCOC)cc23)c1 [ERLOTINIB]
not listed: [6]
Not Active: all other assays above

Cc1ccc(NC(=O)c2ccc(CN3CCN(C)CC3)cc2)cc1Nc1nccc(-c2cccnc2)n1 [IMATINIB]
Not Active: all assays above

O=c1ncn2nc(Sc3ccc(F)cc3F)ccc2c1-c1c(Cl)cccc1Cl [NEFLAMAPIMOD]
Not Active: all assays above

CCOc1cc2ncc(C#N)c(Nc3ccc(F)c(Cl)c3)c2cc1NC(=O)/C=C/CN(C)C [PELITINIB]
Not Active: [1] | [2] | [3] | [5]

Oc1ccc(-c2nc(-c3ccc(F)cc3)c(-c3ccncc3)[nH]2)cc1 [SB-202190]
not listed: [2]
Not Active: all other assays above

C[S+]([O-])c1ccc(-c2nc(-c3ccc(F)cc3)c(-c3ccncc3)[nH]2)cc1 (stereo not drawn) [SB-203580]
not listed: [2]
Not Active: all other assays above

CC[C@H](CO)Nc1nc(NCc2ccccc2)c2ncn(C(C)C)c2n1 [SELICICLIB]
Not Active: all assays above

Oc1c2ccccc2c2c3c(cccc13)N=N2 [SP-600125]
Not Active: [1] | [3] | [4] | [5]

COc1cc2c(N3CCN(C(=O)Nc4ccc(OC(C)C)cc4)CC3)ncnc2cc1OCCCN1CCCCC1 [TANDUTINIB]
not listed: [4]
Not Active: all other assays above
